According to patent US10988502B2, “Alpha-D-galactoside inhibitors of galectins” (GALECTO BIOTECH AB, priority 2016, dated 2021):

Legend:
Galectin-3 = Galectin-3 (Homo sapiens (Human), UniProt P17931); experiment: Fluorescence anisotropy assay, compound as inhibitor of galectin / fluorescein tagged saccharide probe interaction; format: binding
Procedure: (§1) The affinity of Example 1-32 for galectins were determined by a fluorescence anisotropy assay where the compound was used as an inhibitor of the interaction between galectin and a fluorescein tagged saccharide probe as described Sörme, P., Kahl-Knutsson, B., Huflejt, M., Nilsson, U. J., and Leffler H. (2004) Fluorescence polarization as an analytical tool to evaluate galectin-ligand interactions. Anal. Biochem. 334: 36-47, (Sörme et al., 2004) and Monovalent interactions of Galectin-1 By Salomonsson, Emma; Larumbe, Amaia; Tejler, Johan; Tullberg, Erik; Rydberg, Hanna; Sundin, Anders; Khabut, Areej; Frejd, Torbjorn; Lobsanov, Yuri D.; Rini, James M.; et al, From Biochemistry (2010), 49(44), 9518-9532, (Salonmonsson et al., 2010).

Galectin-1 = Galectin-1 (Homo sapiens (Human), UniProt P09382); experiment: as above; format: binding
Procedure: as §1

Sequence of Galectin-3 (P17931 whole entry): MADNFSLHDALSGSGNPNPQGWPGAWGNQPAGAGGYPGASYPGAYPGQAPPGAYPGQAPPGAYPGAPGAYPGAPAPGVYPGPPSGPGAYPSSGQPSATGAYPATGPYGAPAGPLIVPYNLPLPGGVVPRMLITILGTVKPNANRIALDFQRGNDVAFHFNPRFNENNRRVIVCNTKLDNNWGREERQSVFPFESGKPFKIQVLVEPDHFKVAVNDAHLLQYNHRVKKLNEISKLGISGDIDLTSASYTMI

| SMILES | Kd (Galectin-3) [nM] | Kd (Galectin-1) [nM] |
| --- | --- | --- |
| N#Cc1cc(F)c(S[C@H]2OC(CO)[C@H](O)[C@H](n3cc(-c4ccsc4)nn3)C2O)cc1Cl (stereo partly drawn) [Example 2, 2-Chloro-5-fluoro-benzonitril-4-yl 3-deoxy-3-[4-(3-thiophenyl)-1H-1,2,3-triazol-1-yl]-1-thio-α-D-galactopyranoside] | 1950 | 190 |
| OCC1O[C@H](Sc2cncc(Br)c2)C(O)[C@@H](n2cc(-c3nccs3)nn2)[C@H]1O (stereo partly drawn) [Example 20, 5-Bromopyrdin-3-yl 3-deoxy-3-[4-(2-thiazolyl)-1H-1,2,3-triazol-1-yl]-1-thio-α-D-galactopyranoside] | 4600 | 550 |
| OC[C@H]1O[C@H](Sc2cncc(Br)c2)[C@H](O)[C@@H](n2cc(-c3cscn3)nn2)[C@H]1O [Example 10, 5-Bromopyridin-3-yl 3-deoxy-3-[4-(4-thiazolyl)-1H-1,2,3-triazol-1-yl]-1-thio-α-D-galactopyranoside] | 4100 | 250 |
| N#Cc1ncc(S[C@H]2O[C@H](CO)[C@H](O)[C@H](n3cc(-c4nccs4)nn3)[C@H]2O)cc1Cl [Example 23, 5-Chloro-6-cyano-pyridine-3-yl 3-deoxy-3-[4-(2-thiazolyl)-1H-1,2,3-triazol-1-yl]-1-thio-α-D-galactopyranoside] | 4400 | 440 |
| N#Cc1ncc(Br)cc1S[C@H]1O[C@H](CO)[C@H](O)[C@H](n2cc(-c3nccs3)nn2)[C@H]1O [Example 22, 5-Bromo-2-cyano-pyridine-3-yl 3-deoxy-3-[4-(2-thiazolyl)-1H-1,2,3-triazol-1-yl]-1-thio-α-D-galactopyranoside] | 1200 | 200 |
| OC[C@H]1O[C@H](Sc2cnc(C(F)(F)F)c(Br)c2)[C@H](O)[C@@H](n2cc(-c3nccs3)nn2)[C@H]1O [Example 26, 5-Bromo-6-trifluoromethyl-pyridine-3-yl 3-deoxy-3-[4-(2-thiazolyl)-1H-1,2,3-triazol-1-yl]-1-thio-α-D-galactopyranoside] | 2000 | 310 |
| Cc1nc(-c2cn([C@@H]3[C@@H](O)[C@@H](Sc4cncc(Br)c4)O[C@H](CO)[C@@H]3O)nn2)cs1 [Example 15, 5-Bromopyridin-3-yl 3-deoxy-3-[4-(2-methyl-4-thiazolyl)-1H-1,2,3-triazol-1-yl]-1-thio-α-D-galactopyranoside] | 3200 | 640 |
| OC[C@H]1O[C@H](Sc2cc(Cl)c(F)c(Cl)c2)[C@H](O)[C@@H](n2cc(-c3cccs3)nn2)[C@H]1O [Example 8, 3,5-Dichloro-4-fluoro-phenyl 3-deoxy-3-[4-(2-thiophenyl)-1H-1,2,3-triazol-1-yl]-1-thio-α-D-galactopyranoside] | 2300 | 920 |
| OC[C@H]1O[C@H](Sc2cncc(Br)c2)[C@H](O)[C@@H](n2cc(-c3ccsc3)nn2)[C@H]1O [Example 3, 5-Bromopyridin-3-yl 3-deoxy-3-[4-(3-thiophenyl)-1H-1,2,3-triazol-1-yl]-1-thio-α-D-galactopyranoside] | 1700 | 680 |
| OC[C@H]1O[C@H](Sc2cnc(C(F)(F)F)c(Br)c2)[C@H](O)[C@@H](n2cc(-c3cscn3)nn2)[C@H]1O [Example 11, 5-Bromo-6-trifluoromethyl-pyridin-3-yl 3-deoxy-3-[4-(4-thiazolyl)-1H-1,2,3-triazol-1-yl]-1-thio-α-D-galactopyranoside] | 2900 | 170 |
| OC[C@H]1O[C@H](Sc2ccc(Cl)c(Cl)c2)[C@H](O)[C@@H](n2cc(-c3cscn3)nn2)[C@H]1O [Example 12, 3,4-Dichlorophenyl 3-deoxy-3-[4-(4-thiazolyl)-1H-1,2,3-triazol-1-yl]-1-thio-α-D-galactopyranoside] | 5300 | 310 |
| OC[C@H]1O[C@H](Sc2cncc(Cl)c2)[C@H](O)[C@@H](n2cc(-c3nccs3)nn2)[C@H]1O [Example 21, 5-Chloropyridin-3-yl 3-deoxy-3-[4-(2-thiazolyl)-1H-1,2,3-triazol-1-yl]-1-thio-α-D-galactopyranoside] | 1800 | 220 |

Further lines, results first:

| Kd (Galectin-3) [nM] | Kd (Galectin-1) [nM] | SMILES |
| --- | --- | --- |
| 4100 | 240 | OC[C@H]1O[C@H](Sc2ccc(Cl)c(Cl)c2)[C@H](O)[C@@H](n2cc(-c3nccs3)nn2)[C@H]1O [Example 18, 3,4-Dichlorophenyl 3-deoxy-3-[4-(2-thiazolyl)-1H-1,2,3-triazol-1-yl]-1-thio-α-D-galactopyranoside] |
| 460 | 120 | OC[C@H]1O[C@H](Sc2ccc(Cl)c(Cl)c2)[C@H](O)[C@@H](n2cc(-c3nc(Cl)cs3)nn2)[C@H]1O [Example 31, 3,4-Dichlorophenyl 3-deoxy-3-[4-(4-chloro-thiazol-2-yl)-1H-1,2,3-triazol-1-yl]-1-thio-α-D-galactopyranoside] |
| 970 | 550 | OC[C@H]1O[C@H](Sc2ccc(Cl)c(Cl)c2)[C@H](O)[C@@H](n2cc(-c3ccc(F)s3)nn2)[C@H]1O [Example 9, 3,4-Dichlorophenyl 3-deoxy-3-[4-(5-fluoro-2-thiophenyl)-1H-1,2,3-triazol-1-yl]-1-thio-α-D-galactopyranoside] |
| 4400 | 440 | OC[C@H]1O[C@H](Sc2ccc(Cl)c(Br)c2)[C@H](O)[C@@H](n2cc(-c3nccs3)nn2)[C@H]1O [Example 25, 3-Bromo-4-chlorophenyl 3-deoxy-3-[4-(2-thiazolyl)-1H-1,2,3-triazol-1-yl]-1-thio-α-D-galactopyranoside] |
| 6100 | 370 | N#Cc1ccc(S[C@H]2OC(CO)[C@H](O)[C@H](n3cc(-c4cscn4)nn3)C2O)cc1Cl (stereo partly drawn) [Example 13, 2-Chloro-benzonitril-4-yl 3-deoxy-3-[4-(4-thiazolyl)-1H-1,2,3-triazol-1-yl]-1-thio-α-D-galactopyranoside] |
| 12000 | 800 | N#Cc1c(Cl)cc(S[C@H]2OC(CO)[C@H](O)[C@H](n3cc(-c4nccs4)nn3)C2O)cc1Cl (stereo partly drawn) [Example 16, 2,6-Dichloro-bensonitril-4-yl 3-deoxy-3-[4-(2-thiazolyl)-1H-1,2,3-triazol-1-yl]-1-thio-α-D-galactopyranoside] |
| 4400 | 350 | OC[C@H]1O[C@H](Sc2cc(Cl)c(Cl)c(Cl)c2)[C@H](O)[C@@H](n2cc(-c3nncs3)nn2)[C@H]1O [Example 19, 3,4,5-Trichlorophenyl 3-deoxy-3-[4-(1,3,4-thiadiazol-2-yl)-1H-1,2,3-triazol-1-yl]-1-thio-α-D-galactopyranoside] |
| 210 | 790 | OC[C@H]1O[C@H](Sc2ccc(Cl)c(Cl)c2)[C@H](O)[C@@H](n2cc(-c3nc(C(F)(F)F)cs3)nn2)[C@H]1O [Example 32, 3,4-Dichlorophenyl 3-deoxy-3-[4-(4-trifluoromethyl-thiazol-2-yl)-1H-1,2,3-triazol-1-yl]-1-thio-α-D-galactopyranoside] |
| 1600 | 400 | OC[C@H]1O[C@H](Sc2ccc(Cl)c(Cl)c2)[C@H](O)[C@@H](n2cc(-c3ncc(F)s3)nn2)[C@H]1O [Example 30, 3,4-Dichlorophenyl 3-deoxy-3-[4-(5-fluoro-thiazol-2-yl)-1H-1,2,3-triazol-1-yl]-1-thio-α-D-galactopyranoside] |
| 1300 | 610 | OC[C@H]1O[C@H](Sc2cc(Cl)c(Cl)c(Cl)c2)[C@H](O)[C@@H](n2cc(-c3nccs3)nn2)[C@H]1O [Example 17, 3,4,5-Trichlorophenyl 3-deoxy-3-[4-(2-thiazolyl)-1H-1,2,3-triazol-1-yl]-1-thio-α-D-galactopyranoside] |
| 8200 | 910 | OC[C@H]1O[C@H](Sc2cc(Cl)ccc2Cl)[C@H](O)[C@@H](n2cc(-c3nccs3)nn2)[C@H]1O [Example 28, 2,5-Dichlorophenyl 3-deoxy-3-[4-(2-thiazolyl)-1H-1,2,3-triazol-1-yl]-1-thio-α-D-galactopyranoside] |
| 1250 | 450 | OC[C@H]1O[C@H](Sc2cncc(Br)c2)[C@H](O)[C@@H](n2cc(-c3cccs3)nn2)[C@H]1O [Example 7, 5-Bromopyridin-3-yl 3-deoxy-3-[4-(2-thiophenyl)-1H-1,2,3-triazol-1-yl]-1-thio-α-D-galactopyranoside] |
| 4700 | 490 | OC[C@H]1O[C@H](Sc2ccc(F)c(Br)c2)[C@H](O)[C@@H](n2cc(-c3nccs3)nn2)[C@H]1O [Example 27, 3-Bromo-4-fluoro-phenyl 3-deoxy-3-[4-(2-thiazolyl)-1H-1,2,3-triazol-1-yl]-1-thio-α-D-galactopyranoside] |
| 1600 | 340 | OC[C@H]1O[C@H](Sc2cc(Cl)cc(Cl)c2)[C@H](O)[C@@H](n2cc(-c3nccs3)nn2)[C@H]1O [Example 24, 3,5-Dichlorophenyl 3-deoxy-3-[4-(2-thiazolyl)-1H-1,2,3-triazol-1-yl]-1-thio-α-D-galactopyranoside] |
| 690 | 240 | OC[C@H]1O[C@H](Sc2ccc(Cl)c(Cl)c2)[C@H](O)[C@@H](n2cc(-c3ccc(F)cn3)nn2)[C@H]1O [Example 6, 3,4-Dichlorophenyl 3-deoxy-3-[4-(5-fluoro-2-pyridyl)-1H-1,2,3-triazol-1-yl]-1-thio-α-D-galactopyranoside] |
| 810 | 150 | OCC1O[C@H](Sc2ccc(Cl)c(Cl)c2)C(O)[C@@H](n2cc(-c3nc(Br)cs3)nn2)[C@H]1O (stereo partly drawn) [Example 29, 3,4-dichlorophenyl 3-deoxy-3-[4-(4-bromo-2-thiazol-2-yl)-1H-1,2,3-triazol-1-yl]-1-thio-α-D-galactopyranoside] |
